From patent US11597737B2, “Small molecule inhibitors selective for polo-like kinase proteins” (UNIVERSITY OF SOUTH CAROLINA, priority 2016, dated 2023)
Read-outs that look alike come from different tables or passages of the source.

Tests used:
[1] = biological target: T1, PLK1 PBD (367-603) (Homo sapiens, UniProt P53350); test: Fluorescence polarization assay, PLK1 PBD; type: binding
T1 construct: PLK1 PBD (367-603); purchased BPS Biosciences Inc. (San Diego, Calif.)
Description: (§1) Fluorescence Polarization Assay
(§2) Materials were dissolved in DMSO (10 mM) and diluted from 10 nM to 600 μM (maximum of 6% DMSO tolerance in the assay). […] Incubation was carried out at room temperature for 45 minutes. Fluorescence was measured using a DTX 880 plate reader and Multimode Analysis software (Beckman Coulter, Brea, Calif.). […] Each data point was performed in triplicate for every experiment, and experiments were performed at least three times. An IC50 value for each compound was calculated from linear regression analysis of the plots.

[2] = biological target: T2, PLK3 PBD (335-646) (Homo sapiens, UniProt Q9H4B4); test: Fluorescence polarization assay, PLK3 PBD; conditions: PLK3 PBD binding
T2 construct: PLK3 PBD (335-646); purchased BPS Biosciences Inc. (San Diego, Calif.)
T2 sequence (Q9H4B4 335-646): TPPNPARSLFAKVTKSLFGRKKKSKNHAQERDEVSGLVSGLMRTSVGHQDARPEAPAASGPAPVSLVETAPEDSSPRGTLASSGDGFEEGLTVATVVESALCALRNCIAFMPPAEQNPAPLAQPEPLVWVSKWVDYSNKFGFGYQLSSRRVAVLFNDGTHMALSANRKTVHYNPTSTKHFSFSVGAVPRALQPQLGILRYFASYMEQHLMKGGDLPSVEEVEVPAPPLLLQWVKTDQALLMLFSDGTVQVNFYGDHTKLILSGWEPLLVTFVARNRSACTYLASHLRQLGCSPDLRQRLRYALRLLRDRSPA
Description: as §1, §2

[3] = biological target: T3, full length PLK1 (Homo sapiens, UniProt P53350); test: PLK1 kinase inhibition assay (CycLex ELISA); type: biochemical; conditions: 7.5 μM ATP, read-out: PLK1 Kinase Inhibitory Act. IC50
T3 construct: This ELISA assay measures the catalytic activity of full length PLK1 for a defined substrate
Text: PLK1 Kinase Inhibition Assay
The CycLex® Polo-like Kinase 1 Assay/Inhibitor Screening Kit was used to measure catalytic inhibition (MBL Life Science, Nagano, Japan). This ELISA assay measures the catalytic activity of full length PLK1 for a defined substrate, which is detected by an anti-phospho-threonine antibody (PPT-07) and peroxidase coupled secondary antibody. […] Peroxidase catalyzes the conversion of the colorless solution to yellow, which was quantified using a DTX 880 plate reader. Absorbance measurements (450 nm) were plotted to calculate activity in each sample, and % inhibition was calculated in the wells relative to activity in the absence of inhibitor.

[4] = test system: WT Retinal Pigment Epithelial (RPE) cells; test: Cell viability assay, WT RPE cells; type: cell-based; conditions: FIG. 7, FIG. 8
Description: (§3) Retinal Pigment Epithelial (RPE) cells were maintained in 1:1 DMEM/Hams F-12 (Invitrogen™, Carlsebad, Calif.; Corning® Cellgro, Manassas, Va.), and supplemented with 10% FBS or Corning® Nu-Serum™ (BD™ Biosciences, Franklin Lakes, N.J.) and 1% penicillin/streptomycin (Invitrogen™) in a humidified incubator and 5% C02 at 37° C.
(§4) Exponentially growing cells were plated in 96-well dishes. Dose response curves were used to treat cells for 72 hours with inhibitors. Following the three-day treatment, cell viability was measured using the MTT (3-(4,5-dimethylthiazol-2-yl)-2,5-diphenyltetrazolium bromide) colorimetric assay. Cells were incubated for 3 hours with MTT allowing viable cells to metabolize the tetrazolium dye to a purple colored solution.

[5] = test system: HCT-116 (p53−/−) colon cancer cells; test: Cell viability assay (MTT), HCT116 p53-/-; type: cell-based; conditions: 72 hours
Description: HCT-116 (p53+/+ and −/−) colon cancer cells were maintained DMEM (Invitrogen™, Carlsebad, Calif.) supplemented with 10% FBS or Nu-serum (BD™ Biosciences, Franklin Lakes, N.J.) and 1% penicillin/streptomycin (Invitrogen™) in a humidified incubator and 5% C02 at 37° C.
as §4, with “solution. Absorbance measurements (595 nm) were quantified using a DTX 880 plate reader and IC50 values were generated for FLIPs.” for “solution.”

[6] = test system: mutant (C67V) PLK1 RPE cells; test: Cell viability assay, PLK1 C67V mutant RPE cells; type: cell-based; conditions: FIG. 6-8
Description: as §3, §4

[7] = test system: KRAS mutant lung cancer (A-549) cells; test: Cell viability assay (MTT), A-549; type: cell-based; conditions: 72 hours
Description: A-549 lung cancer cells were maintained in Hams F-12 1× with glutamine (Corning® Cellgro, Manassas, Va.), and supplemented with 10% FBS or Corning® Nu-Serum™ (BD™ Biosciences, Franklin Lakes, N.J.) and 1% penicillin/streptomycin (Invitrogen™) in a humidified incubator and 5% C02 at 37° C.
as §4, with “solution. Absorbance measurements (595 nm) were quantified using a DTX 880 plate reader and IC50 values were generated for FLIPs.” for “solution.”

[8] = test system: PTEN deficient prostate cancer (PC3) cells; test: Cell viability assay (MTT), PC3; type: cell-based; conditions: MTT, 72 hours; read-out: PCC-3
Description: PC3 prostate cancer cells were maintained in DMEM (Invitrogen™, Carlsebad, Calif.) supplemented with 10% FBS or Corning® Nu-Serum™ (BD™ Biosciences, Franklin Lakes, N.J.) and 1% penicillin/streptomycin (Invitrogen™) in a humidified incubator and 5% C02 at 37° C.
as §4

[9] = test system: PC3 cells; test: Cell cycle analysis and BrdU pulse labeling in PC3 cells, FIG. 9-11; type: cell-based; conditions: concentration not given
Description: Analysis of Cell Cycle Progression by FACS
Serum-Starved Synchronization
Cells were synchronized in G1 by serum starvation. Briefly, exponentially growing cells were plated overnight. Media (DMEM, 10% FBS, 1% Pen. Strep.) was then removed and replaced with media containing no FBS. Cells were starved for 72 hours then treated for 24 hours with inhibitor. Following treatment, cells were harvested and processed for endpoint experimental analysis.
Ethanol fixative was removed by centrifugation and the cells were washed with 1 mL ice-cold PBS/1% BSA. Cells were denatured by resuspending in 0.2 mg/mL pepsin in 2N HCl and incubated in 37° C. water bath for 15 minutes. Hydrolysis was then terminated by adding 1 M Invitrogen™ Novex® Tris-Glycine. Cells were then washed with PBS/1% BSA then the primary anti-BrdU antibody (1:100 dilution in TBFP; 0.5% Tween-20, 1% BSA, 1% FBS, PBS) was added and cells were incubated for 25 minutes in the dark, at room temperature. […] Cells were washed once more with PBS/1% BSA and re-suspended in DAPI for 30 minutes before being analyzed by flow cytometry.
The PLK1 PBD-inhibitors were analyzed further by cell cycle analysis in PC3 cells (FIG. 9). […] To quantify the percentage of cells actively proliferating (synthesizing their DNA) or arrested Bromodeoxyuridine (BrdU) pulse labeling was carried out and analyzed by flow cytometry.

[10] = PLK1 PBD binding, fluorescence polarization, read-out: PLK1 IC50
[11] = Table 1, fluorescence polarization, read-out: PLK1 PBD IC50

T1 sequence (P53350 367-603): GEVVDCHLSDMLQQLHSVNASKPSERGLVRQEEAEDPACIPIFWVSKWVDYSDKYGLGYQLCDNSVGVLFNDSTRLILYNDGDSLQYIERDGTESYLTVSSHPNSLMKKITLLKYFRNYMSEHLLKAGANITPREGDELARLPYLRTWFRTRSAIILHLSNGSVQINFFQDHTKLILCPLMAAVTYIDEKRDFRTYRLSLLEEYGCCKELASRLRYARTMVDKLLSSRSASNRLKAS
T3 sequence (P53350 whole entry): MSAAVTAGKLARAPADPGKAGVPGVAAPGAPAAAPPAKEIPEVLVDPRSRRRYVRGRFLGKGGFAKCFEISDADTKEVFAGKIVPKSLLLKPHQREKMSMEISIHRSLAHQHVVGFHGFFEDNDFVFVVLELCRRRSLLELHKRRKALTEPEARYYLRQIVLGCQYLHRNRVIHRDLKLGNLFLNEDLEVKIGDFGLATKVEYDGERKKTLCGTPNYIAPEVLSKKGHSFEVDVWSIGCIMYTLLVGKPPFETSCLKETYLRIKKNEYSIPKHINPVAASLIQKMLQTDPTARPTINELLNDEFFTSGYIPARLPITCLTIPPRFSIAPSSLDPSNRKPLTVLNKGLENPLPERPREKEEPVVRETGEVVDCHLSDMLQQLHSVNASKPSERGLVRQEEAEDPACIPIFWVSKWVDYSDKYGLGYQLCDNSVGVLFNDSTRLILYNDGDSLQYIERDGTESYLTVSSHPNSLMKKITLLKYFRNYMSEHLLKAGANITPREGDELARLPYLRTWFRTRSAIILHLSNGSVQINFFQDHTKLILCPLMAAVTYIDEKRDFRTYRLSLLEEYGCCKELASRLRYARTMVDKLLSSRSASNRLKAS

Structure (SMILES): CCCCCCCCc1ccc(CNc2ccc(C)cc2C(=O)O)cc1 [SCCP ID No. 5961]
- IC50 [1, 10]: > 600 µM
- binding to the PLK1 PBD (in words) ([1]; fluorescence polarization): undetectable
- IC50 [2]: 157 µM

Structure (SMILES): CCCCCCCCc1ccc(C(=O)NCc2ccccc2C(=O)O)cc1 [SCCP ID No. 5913]
- IC50 [1, 11]: 105 µM

Structure (SMILES): CCCCCCCCc1ccc(C(=O)Nc2cccc(F)c2C(=O)O)cc1 [SCCP ID No. 5932]
- IC50 [1, 10]: 11.1 ± 1.1 µM
- IC50 [3]: 48.9 µM
- sensitivity of cells containing wild type PLK1 (in words) [4]: sensitive
- IC50 [5]: 10 ± 2.4 µM
- sensitivity of cells containing mutant (C67V) PLK1 (in words) [6]: sensitive
- IC50 [7]: 2900 ± 500 nM
- IC50 [8]: 11.6 ± 1.2 µM

Structure (SMILES): CCCCCCCCc1ccc(C(=O)Nc2cc(F)cc(F)c2C(=O)O)cc1 [SCCP ID No. 5938]
- IC50 [1, 10]: 30.6 ± 3.2 µM

Structure (SMILES): CC[C@@H]1C(=O)N(C)c2cnc(Nc3ccc(C(=O)NC4CCN(C)CC4)cc3OC)nc2N1C1CCCC1 [BI-2536, reference compound]
- sensitivity of cells containing mutant (C67V) PLK1 (in words) [6]: resistant
- cells accumulate in G2/M [9]: ~80%

Structure (SMILES): CCCCCCCCc1ccc(C(=O)Nc2cccc([N+](=O)[O-])c2C(=O)O)cc1 [SCCP ID No. 5939]
- IC50 [1, 10]: 6.05 ± 1.9 µM

Structure (SMILES): CCCCCCCCc1ccc(CNc2ccccc2C(=O)O)cc1 [SCCP ID No. 5953]
- IC50 [1, 10]: 9.57 ± 2.03 µM

Structure (SMILES): CCCCCc1ccc(C(=O)Nc2ccccc2C(=O)O)cc1 [SCCP ID No. 5905]
- IC50 [1, 10]: 224 ± 4.88 µM

Structure (SMILES): CCCCCCc1ccc(C(=O)Nc2cccc(C(=O)O)c2)cc1 [SCCP ID No. 5903]
- IC50 [1, 10]: 130 ± 3.6 µM
- Selectivity Fold Index ([1]; fold selectivity for PLK1 versus PLK3 PBD): 1.6
- IC50 [2]: 43.6 ± 1.69 µM

Structure (SMILES): CCCCCCc1ccc(C(=O)Nc2cccc(S(N)(=O)=O)c2)cc1 [SCCP ID No. 5908]
- IC50 [1, 10]: > 600 µM
- binding to the PLK1 PBD (in words) ([1]; fluorescence polarization): No binding was observed

Structure (SMILES): CCCCCCc1ccc(C(=O)Nc2ccccc2O)cc1 [SCCP ID No. 5943]
- IC50 [1, 10]: > 600 µM
- binding to the PLK1 PBD (in words) ([1]; fluorescence polarization): No binding was observed

Structure (SMILES): CCCCCCCCc1ccc(C(=O)NCC(C)C(=O)O)cc1 (stereo not shown) [SCCP ID No. 5976]
- IC50 [1, 11]: 343 to 450 µM
